In ChEMBL document CHEMBL1150989, “Identification and characterisation of an inhibitor of interleukin-8: a receptor based approach” (Bioorg Med Chem Lett, 1996) one finds Ki and IC50 data, which are given here for 38 compounds.

Where a SMILES comes first, the peptide text is derived from it. [ ]: non-standard residue; d: D form. Abu = CC[C@H](N)C(=O)O Where only a bound is given, the exact number is not on record here.

The target of one assay is T1, Interleukin-8 receptors, CXCR1/CXCR2 (Homo sapiens, UniProt P25025+P25024).
T1 sequence (P25025 whole entry): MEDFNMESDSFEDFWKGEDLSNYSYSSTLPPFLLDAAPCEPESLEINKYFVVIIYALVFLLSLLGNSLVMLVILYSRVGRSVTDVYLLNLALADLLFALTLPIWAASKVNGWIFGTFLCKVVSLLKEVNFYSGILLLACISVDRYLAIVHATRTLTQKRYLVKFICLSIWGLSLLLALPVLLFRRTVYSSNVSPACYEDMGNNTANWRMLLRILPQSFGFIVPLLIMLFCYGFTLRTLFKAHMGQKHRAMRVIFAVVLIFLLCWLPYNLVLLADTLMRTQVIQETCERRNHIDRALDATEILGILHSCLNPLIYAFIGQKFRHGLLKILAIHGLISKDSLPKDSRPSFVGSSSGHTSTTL
T1 sequence (P25024 whole entry): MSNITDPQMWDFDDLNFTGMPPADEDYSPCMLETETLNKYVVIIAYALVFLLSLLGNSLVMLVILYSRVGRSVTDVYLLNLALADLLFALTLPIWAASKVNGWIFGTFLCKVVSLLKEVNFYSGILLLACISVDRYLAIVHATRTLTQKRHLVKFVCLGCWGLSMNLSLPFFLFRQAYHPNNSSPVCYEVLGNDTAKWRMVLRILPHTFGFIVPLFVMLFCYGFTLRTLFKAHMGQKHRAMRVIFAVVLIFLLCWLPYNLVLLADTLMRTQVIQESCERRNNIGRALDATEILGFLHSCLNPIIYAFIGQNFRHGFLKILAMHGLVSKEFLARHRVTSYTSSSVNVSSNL
As to the kind of experiment: Inhibitory activity against interleukin-8 receptor using [125I]IL8. The format is protein assay.
The term Ki denotes the dissociation constant of the complex between target and ligand, obtained from inhibition or displacement. The compound Ac-FRQAYHPNNSSP-NH2 registered a Ki of 10 µM. With Ac-MWDFDDLNFTGMPAADEDYSP-NH2, the inhibition constant (Ki) was 27 µM.

With Ac-MWDFADLNFTGMPPADEDYSP-NH2, the Ki was 32 µM. As for Ac-NFTGMPPADEDYSP-NH2, the Ki came out at 2700 µM. Ac-MWDFDDLNFTGMPPADEDYSP-NH2 had a Ki of 13 µM. In the case of Ac-MWDFDALNFTGMPPADEDYSP-NH2, the Ki was 62 µM. Take Ac-MWDFDDLNFTGAPPADEDYSP-NH2: the Ki turned out to be 14 µM. Same read-out and setting: the same measure for Ac-MWDFDDLNFAGMPPADEDYSP-NH2: 5 µM; for Ac-MWDFDDLNFTGMPPADEAYSP-NH2: 42 µM. The same measure, in the same setting: under Ac-DDLNFTGMPPADEDYSP-NH2 stands 190 µM; under Ac-MWDADDLNFTGMPPADEDYSP-NH2, 49 µM; under `CSCC[C@H](NC(C)=O)C(=O)N1CCC[C@H]1C(=O)N1CCC[C@H]1C(=O)N[C@@H](C)C(=O)N[C@@H](CC(=O)O)C(=O)N[C@@H](CCC(=O)O)C(=O)N[C@@H](CC(=O)O)C(=O)N[C@@H](Cc1ccc(O)cc1)C(=O)N[C@@H](CO)C(=O)N1CCC[C@H]1C(N)=O` (stereo in doubt; form 1), 1.7 µM.

The compound Ac-FTGMPPADEDYSP-NH2 yielded a Ki of 1850 µM. The same measure, in the same setting: the same measure for Ac-MWDFDDLNFTGMPPADEDYAP-NH2: 15 µM; for `CC[C@H](NC(=O)[C@@H]1CCCN1C(=O)[C@H](CO)NC(=O)[C@H](Cc1ccc(O)cc1)NC(=O)[C@H](CC(=O)O)NC(=O)[C@H](CCC(=O)O)NC(=O)[C@H](CC(=O)O)NC(=O)[C@H](C)NC(=O)[C@@H]1CCCN1C(=O)[C@@H]1CCCN1C(=O)[C@H](CCSC)NC(C)=O)C(=O)N[C@@H](CCSC)C(=O)N[C@@H](CC(C)C)C(=O)N[C@@H](CCC(=O)O)C(=O)N[C@H](C(=O)N[C@@H](CCC(=O)O)C(=O)N[C@H](C(=O)N[C@@H](CC(C)C)C(=O)N[C@@H](CC(N)=O)C(=O)N[C@@H](CCCCN)C(=O)N[C@@H](Cc1ccc(O)cc1)C(N)=O)[C@@H](C)O)[C@@H](C)O` (Ac-MPPADEDYSP[Abu]MLETETLNKY-NH2): 0.3 µM; for Ac-MWDFDDLNFTGMPPADEDYSA-NH2: 155 µM. Still for that read-out and setting: under Ac-AWDFDDLNFTGMPPADEDYSP-NH2 stands 23 µM; under Ac-LNFTGMPPADEDYSP-NH2, 3100 µM; under Ac-MADFDDLNFTGMPPADEDYSP-NH2, 55 µM. Regarding Ac-MWDFDDLAFTGMPPADEDYSP-NH2, the Ki was 42 µM. Ac-MWDFDDLNFTGMPPADADYSP-NH2 registered a Ki of 29 µM. Still for that read-out and setting: the same measure for Ac-DFDDLNFTGMPPADEDYSP-NH2: 68 µM; for Ac-GMPPADEDYSP-NH2: 890 µM. Same read-out and setting: the same measure for Ac-MWDFDDLNATGMPPADEDYSP-NH2: 107 µM; for Ac-MWDFDDLNFTGMPPADEDASP-NH2: 265 µM. Compound Ac-ADTLMRTQVIQETAERRNNIGRALDATEI-NH2 had an inhibition constant Ki of more than 1 µM.

For the compound Ac-MSNITDPQMWDFDDLNFTG-NH2, the Ki is more than 30 µM. Ac-FDDLNFTGMPPADEDYSP-NH2: the Ki was 120 µM. For the compound `CC[C@H](NC(=O)[C@H](CC(C)C)NC(=O)[C@H](Cc1ccccc1)NC(=O)[C@@H](NC(=O)CNC(=O)[C@H](Cc1ccccc1)NC(=O)[C@@H](NC(=O)[C@H](Cc1c[nH]c2ccccc12)NC(=O)CNC(=O)[C@H](CC(N)=O)NC(=O)[C@@H](NC(C)=O)C(C)C)[C@@H](C)CC)[C@@H](C)O)C(=O)N[C@@H](CCCCN)C(=O)N[C@H](C(N)=O)C(C)C` (Ac-VNGWIFGTFL[Abu]KV-NH2), the Ki was more than 30 µM. The compound Ac-MWDFDDLNFTGMAPADEDYSP-NH2 showed a Ki of 400 µM. Ac-DLNFTGMPPADEDYSP-NH2 returned a Ki of 750 µM.

Ac-MWAFDDLNFTGMPPADEDYSP-NH2 displayed a Ki of 28 µM. In turn, `CSCC[C@H](NC(C)=O)C(=O)N1CCC[C@H]1C(=O)N1CCC[C@H]1C(=O)N[C@@H](C)C(=O)N[C@@H](CC(=O)O)C(=O)N[C@@H](CCC(=O)O)C(=O)N[C@@H](CC(=O)O)C(=O)N[C@@H](Cc1ccc(O)cc1)C(=O)N[C@@H](CO)C(=O)N1CCC[C@H]1C(N)=O` (stereo in doubt; form 2) displayed a Ki of 1700 µM. With Ac-MWDFDDANFTGMPPADEDYSP-NH2, the Ki is 61 µM.

Ac-MWDFDDLNFTGMPPAAEDYSP-NH2 yielded a Ki of 55 µM. On to Ac-WDFDDLNFTGMPPADEDYSP-NH2, for which the Ki is 27 µM.

Regarding `CC[C@H](NC(=O)[C@@H](NC(C)=O)C(C)C)C(=O)N[C@@H](Cc1ccc(O)cc1)C(=O)N[C@@H](CCC(=O)O)C(=O)N[C@H](C(=O)N[C@@H](CC(C)C)C(=O)NCC(=O)N[C@@H](CC(N)=O)C(=O)N[C@@H](CC(=O)O)C(=O)N[C@H](C(=O)N[C@@H](C)C(=O)N[C@@H](CCCCN)C(=O)N[C@@H](Cc1c[nH]c2ccccc12)C(=O)N[C@@H](CCCN=C(N)N)C(=O)N[C@@H](CCSC)C(=O)N[C@H](C(=O)N[C@@H](CC(C)C)C(=O)N[C@@H](CCCN=C(N)N)C(=O)N[C@H](C(N)=O)[C@@H](C)CC)C(C)C)[C@@H](C)O)C(C)C` (Ac-V[Abu]YEVLGNDTAKWRMVLRI-NH2), the Ki is more than 1 µM. On to Ac-TGMPPADEDYSP-NH2, for which the Ki was found to be 2050 µM.

The target in the next assay is T1, Interleukin-8 receptors, CXCR1/CXCR2. Put plainly: Compound was tested for inhibitory activity against Interleukin-8 receptor. The format is protein assay.
As a reminder, the IC50 is the concentration needed to halve the response being measured. The low end stands for greater potency in that assay, the high end for weaker potency in that assay. As to Ac-MWDFDDLNFTGMPPADEDYSP-NH2, the IC50 came out at 19 µM.
